Tested on: cholesterol and triglyceride synthesis
Test: Inhibition of plasma and hepatic cholesterol and triglyceride synthesis in apoB100/Lp(a) mice
Assay type: in vivo, mouse
Method: The apoB100/Lp(a) (cross of mice transgenic for human apoB100 and human apo(a)) mice) were obtained from Charles River. There were 8 animals per treatment group. […] Mice were acclimated for a minimum of 7 days to a reverse 12 hour light/12 hour dark cycle prior to administration of the first dose of test drug or vehicle. […] Test drugs and vehicle were given once daily. Thirty minutes after the eighth dose, 12.5 μCi [^14C] sodium acetate was administered. […] Individual plasma samples were acquired by placing whole blood samples into EDTA loaded centrifuge tubes and centrifuged. Plasma was transferred to new tubes and stored at −20° C. until assayed for [^14C] labeled cholesterol. Liver samples were flash frozen in liquid nitrogen and stored at −80° C. until assayed for [^14C] labeled cholesterol and triglycerides. Assay for plasma [^14C] labeled cholesterol. […] Additionally, 0.025 μCi […] (Perkin Elmer Life Sciences Inc. Boston, Mass.) was added to each sample, and to 2 or 3 spike controls in 7-mL scintillation vials, as an extraction internal standard. […] Samples were vortexed and saponified at 75° C. for 1 hour. After the samples cooled […] [^14C] labeled cholesterol was extracted with 2.5 mL petroleum ether per sample and shaken for 10 minutes, and then centrifuged for 10 minutes at 0° C. […] Each sample was then dissolved in 0.25 mL of 2 parts chloroform to 1 part per methanol by sonication. Five mL scintillant was added to each sample and the spike controls for direct [^3H] and [^14C] […] per minute (DPM) recording using a Packard 2500TR Tri-Carb Liquid Scintillation Analyzer. […] Assay for liver [^14C] labeled cholesterol and triglycerides. Frozen liver samples were kept on dry ice during sample weighing procedures and assay preparations. Each sample was homogenized in a solution of ice-cold methanol;0.5 N acetic acid. […] Samples were then vortexed and centrifuged for 20 minutes at 3000 rpm at room temperature to separate the phases. The lower chloroform layer was transferred to new vials. The remaining upper aqueous phase was extracted in like manner with 15 mL chloroform 2 more times. […] The aqueous phase was discarded and the chloroform phase was washed 2 times in like manner with 15 mL 1 part methanol to 1 part water, discarding the aqueous phase. The chloroform samples were evaporated under nitrogen gas, and resuspended in 600 μL chloroform and 30 μL removed for scintillation counting. Sample volumes were adjusted for corrected percent recovery and a calculated volume to load based on total liver weight. Calculated volumes were spotted onto TLC plates and dried in an 80° C. oven. After the plates had cooled to room temperature, they were developed in 102 mL isooctane:diethyl ether:glacial acetic acid, 75:25:2, respectively. Plates were dried in an 80° C. oven and allowed to cool to room temperature, wrapped in plastic wrap, and exposed to the phosphorimager screen. Imagequant software was used to quantitate cholesterol and triglyceride bands.

[1] = 100 mg/kg oral once daily, 8 doses

Compound: CC(C)(CCCCOCCCCC(C)(C)C(=O)O)C(=O)O [Gemcabene, 6,6′-oxybis(2,2-dimethylhexanoic acid)]
- inhibition of cholesterol synthesis as measured in plasma (100 mg/kg): 60%
- inhibition of newly synthesized cholesterol in liver tissue (100 mg/kg): 65%
- inhibition of newly synthesized triglycerides in liver tissue (100 mg/kg): 66%
- hepatic Cholesterol synthesis ([14C] sodium acetate), % Change from Vehicle [1]: −65 ± 11 %
- hepatic Triglycerides synthesis ([14C] sodium acetate), % Change from Vehicle [1]: −66 ± 6 %

From patent US20170172955A1, “Treatment of Mixed Dyslipidemia” (priority 2015, published 2017)
